Reference: PubChem BioAssay (NCI)
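Protocol summary: plate cells (96-well), add compound at 5 concentrations, incubate 48 h, interpolate endpoints linearly. TGI marks complete inhibition of growth.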

Key:
Assay in all cases: NCI-60 cell line screen, 48 h
[1] = tested on: 786-0 renal
[2] = tested on: A498 renal
[3] = tested on: A549 NSCLC
[4] = tested on: ACHN renal
[5] = tested on: BT-549 breast
[6] = tested on: CAKI-1 renal
[7] = tested on: CCRF-CEM leukemia
[8] = tested on: COLO 205 colon
[9] = tested on: DU-145 prostate
[10] = tested on: EKVX NSCLC
[11] = tested on: HCC-2998 colon
[12] = tested on: HCT-116 colon
[13] = tested on: HCT-15 colon
[14] = tested on: HL-60(TB) leukemia
[15] = tested on: HOP-62 NSCLC
[16] = tested on: HOP-92 NSCLC
[17] = tested on: HS 578T breast
[18] = tested on: HT29 colon
[19] = tested on: IGROV1 ovarian
[20] = tested on: K-562 leukemia
[21] = tested on: KM12 colon
[22] = tested on: LOX IMVI melanoma
[23] = tested on: M14 melanoma
[24] = tested on: MALME-3M melanoma
[25] = tested on: MCF7 breast
[26] = tested on: MDA-MB-231 breast
[27] = tested on: MDA-MB-435
[28] = tested on: MDA-N
[29] = tested on: MOLT-4 leukemia
[30] = tested on: NCI-H226 lung
[31] = tested on: NCI-H23 lung
[32] = tested on: NCI-H460 lung
[33] = tested on: NCI-H522 lung
[34] = tested on: NCI/ADR-RES ovarian
[35] = tested on: OVCAR-3 ovarian
[36] = tested on: OVCAR-4 ovarian
[37] = tested on: OVCAR-5 ovarian
[38] = tested on: OVCAR-8 ovarian
[39] = tested on: PC-3 prostate
[40] = tested on: RPMI-8226 leukemia
[41] = tested on: RXF 393 renal
[42] = tested on: SF-268 CNS
[43] = tested on: SF-295 CNS
[44] = tested on: SF-539 CNS
[45] = tested on: SK-MEL-2 melanoma
[46] = tested on: SK-MEL-28 melanoma
[47] = tested on: SK-MEL-5 melanoma
[48] = tested on: SK-OV-3 ovarian
[49] = tested on: SN12C renal
[50] = tested on: SNB-19 CNS
[51] = tested on: SNB-75 CNS
[52] = tested on: SR leukemia
[53] = tested on: SW-620 colon
[54] = tested on: T-47D breast
[55] = tested on: TK-10 renal
[56] = tested on: U251 CNS
[57] = tested on: UACC-257 melanoma
[58] = tested on: UACC-62 melanoma
[59] = tested on: UO-31 renal

Measured: TGI

CC(=O)Nc1cc([As](=O)(O)O)ccc1O
> 100 µM: all assays above
